Counter-ions that a name gives are not always drawn.
Tests used:
hERG channel = hERG channel (Homo sapiens (Human), UniProt Q12809); experiment: Human ERG channel binding assay (fluorescence polarization); details: tracer displacement, 4 h at room temperature
Procedure: Human ERG Channel Binding Assay
Fluorescence polarization assay based on the principle of fluorescence polarization where a red-shifted fluorescent tracer is displaced from the hERG channel by compounds that bind to the channel was used to establish the binding of the compounds to hERG channel. […] Briefly, the compounds in serial dilutions were incubated with a membrane fraction containing hERG channel protein and a high-affinity red fluorescent hERG channel ligand in black 384-well plate. […] The IC50 values were calculated using GraphPad Prism.

recombinant human AMCase = recombinant human AMCase (Homo sapiens (Human), UniProt Q9BZP6); experiment: Human AMCase activity assay; format: biochemical; details: citrate buffer pH 5.2, 37° C., 60 minutes, read-out: hAMCase, IC50
Procedure: (§1) The assay was run in the 96-well plate format, each reaction in the total volume of 100 μL. 4-Methylumbelliferyl B-D-N,N′-diacetylchitobioside hydrate was used as a substrate for the enzyme. Upon hydrolysis by AMCase, the substrate releases 4-methylumbelliferyl (4MU) that, when ionized in basic pH, emits fluorescence at 460 nm. Briefly, 40 μL of a substrate was added to each well, followed by 10 μL of compound dilution and 50 μL of hAMCase recombinant enzyme solution. The reaction was carried out in citrate buffer, pH 5.2, in the dark, at 37° C. for 60 minutes with shaking. […] The IC50 values were calculated using GraphPad Prism.

recombinant human CHIT1 = recombinant human CHIT1 (Homo sapiens (Human), UniProt Q13231); experiment: Human CHIT1 activity assay; format: biochemical; details: recombinant human CHIT1, citrate buffer pH 5.2, 37° C., 60 minutes; read-out: hCHIT1, IC50
Procedure: as §1, with “4-methylumbelliferyl β-D-N,N′,N″-triacetylchitotriose” for “4-Methylumbelliferyl B-D-N,N′-diacetylchitobioside hydrate”, “CHIT1,” for “AMCase,”, “CHIT1” for “hAMCase”

Chain of hERG channel (Q12809 whole entry): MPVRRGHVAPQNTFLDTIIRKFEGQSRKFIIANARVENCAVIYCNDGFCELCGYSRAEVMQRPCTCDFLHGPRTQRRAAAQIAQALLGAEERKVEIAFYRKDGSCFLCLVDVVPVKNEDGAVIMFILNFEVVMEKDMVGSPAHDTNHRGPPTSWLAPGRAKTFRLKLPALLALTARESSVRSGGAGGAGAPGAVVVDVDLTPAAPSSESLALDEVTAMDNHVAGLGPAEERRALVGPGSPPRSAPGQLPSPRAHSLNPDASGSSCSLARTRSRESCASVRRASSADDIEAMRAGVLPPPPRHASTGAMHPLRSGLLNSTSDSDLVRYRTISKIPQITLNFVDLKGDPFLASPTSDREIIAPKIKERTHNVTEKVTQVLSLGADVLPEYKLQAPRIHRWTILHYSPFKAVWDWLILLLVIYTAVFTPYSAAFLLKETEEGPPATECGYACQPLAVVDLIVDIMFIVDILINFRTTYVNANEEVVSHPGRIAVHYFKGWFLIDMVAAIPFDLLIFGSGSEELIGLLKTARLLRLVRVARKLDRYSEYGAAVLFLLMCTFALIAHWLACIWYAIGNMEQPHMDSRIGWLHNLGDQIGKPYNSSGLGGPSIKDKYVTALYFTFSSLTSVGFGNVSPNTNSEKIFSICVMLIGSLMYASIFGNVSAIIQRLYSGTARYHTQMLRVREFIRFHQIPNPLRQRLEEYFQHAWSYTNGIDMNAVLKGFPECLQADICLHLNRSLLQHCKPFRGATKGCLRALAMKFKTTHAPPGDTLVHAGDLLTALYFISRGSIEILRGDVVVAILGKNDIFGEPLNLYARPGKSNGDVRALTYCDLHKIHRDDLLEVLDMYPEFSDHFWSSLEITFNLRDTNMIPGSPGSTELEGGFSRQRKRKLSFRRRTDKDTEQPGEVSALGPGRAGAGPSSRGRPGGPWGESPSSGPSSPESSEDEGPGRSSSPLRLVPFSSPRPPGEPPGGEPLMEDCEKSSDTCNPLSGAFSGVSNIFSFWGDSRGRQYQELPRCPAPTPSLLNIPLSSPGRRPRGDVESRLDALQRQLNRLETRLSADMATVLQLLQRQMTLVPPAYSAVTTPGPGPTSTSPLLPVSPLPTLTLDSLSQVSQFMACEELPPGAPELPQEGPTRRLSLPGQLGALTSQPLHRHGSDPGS
Chain of recombinant human CHIT1 (Q13231 22-466): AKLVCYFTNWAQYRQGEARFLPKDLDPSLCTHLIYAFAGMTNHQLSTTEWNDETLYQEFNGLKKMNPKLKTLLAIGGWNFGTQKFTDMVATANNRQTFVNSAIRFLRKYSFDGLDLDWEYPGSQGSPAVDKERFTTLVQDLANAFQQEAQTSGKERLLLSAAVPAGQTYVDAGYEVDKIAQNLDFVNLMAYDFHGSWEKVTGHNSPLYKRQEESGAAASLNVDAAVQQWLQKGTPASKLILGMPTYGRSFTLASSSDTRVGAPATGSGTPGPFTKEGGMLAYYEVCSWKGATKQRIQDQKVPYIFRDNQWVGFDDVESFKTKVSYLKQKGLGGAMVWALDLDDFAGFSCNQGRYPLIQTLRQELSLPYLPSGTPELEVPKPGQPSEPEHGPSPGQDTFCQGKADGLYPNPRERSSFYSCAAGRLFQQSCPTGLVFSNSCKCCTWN
Chain of recombinant human AMCase (Q9BZP6 22-476): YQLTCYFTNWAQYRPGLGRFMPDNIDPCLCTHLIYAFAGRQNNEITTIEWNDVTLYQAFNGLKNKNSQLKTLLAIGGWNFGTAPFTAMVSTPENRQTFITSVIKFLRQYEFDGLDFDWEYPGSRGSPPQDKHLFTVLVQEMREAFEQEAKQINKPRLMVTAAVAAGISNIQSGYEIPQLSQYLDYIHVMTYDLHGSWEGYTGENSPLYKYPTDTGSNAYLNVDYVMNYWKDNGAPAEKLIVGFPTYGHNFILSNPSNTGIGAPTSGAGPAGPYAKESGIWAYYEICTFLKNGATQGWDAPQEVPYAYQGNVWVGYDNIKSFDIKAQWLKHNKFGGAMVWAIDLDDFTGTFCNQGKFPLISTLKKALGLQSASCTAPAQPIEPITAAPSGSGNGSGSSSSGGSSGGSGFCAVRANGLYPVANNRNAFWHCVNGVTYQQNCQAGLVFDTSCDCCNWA

| IC50 (recombinant human AMCase) [µM] | IC50 (recombinant human CHIT1) [µM] | Structure (SMILES) | IC50 (hERG channel; Table 1) [µM] | IC50 (hERG channel; Table 2, comparative examples) [µM] |
| --- | --- | --- | --- | --- |
| < 0.1 | < 0.1 | Nc1nnc(N2CCC(N3C[C@H](C(=O)NC4CC4)OC[C@@H]3Cc3ccc(Cl)cc3)CC2)[nH]1 [Example 24, (2R,5S)-4-(1-(5-amino-4H-1,2,4-triazol-3-yl)piperidin-4-yl)-5-(4-chlorobenzyl)-N-cyclopropylmorpholine-2-carboxamide 2,2,2-trifluoroacetate] | > 100 | – |
| – | – | CC(C)C[C@H]1CN(C2CCN(c3nnc(N)[nH]3)CC2)[C@@H](Cc2ccc(Cl)cc2)CN1C [Example C12, reference compound] | – | < 1 |
| < 0.1 | < 0.1 | Nc1nnc(N2CCC(N3C[C@H](CN4CCCC4=O)OC[C@@H]3Cc3ccc(Cl)cc3)CC2)[nH]1 [Example 7, 1-(((2R,5S)-4-(1-(5-amino-4H-1,2,4-triazol-3-yl)piperidin-4-yl)-5-(4-chlorobenzyl)-morpholin-2-yl)methyl)pyrrolidin-2-one 2,2,2-trifluoroacetate] | > 100 | – |
| < 0.1 | < 0.1 | Nc1nnc(N2CCC(N3C[C@H]([C@@H](O)C(F)(F)F)OC[C@@H]3Cc3ccc(Cl)cc3)CC2)[nH]1 [Example 17, (R)-1-((2R,5S)-4-(1-(5-amino-4H-1,2,4-triazol-3-yl)piperidin-4-yl)-5-(4-chlorobenzyl)morpholin-2-yl)-2,2,2-trifluoroethanol 2,2,2-trifluoroacetate] | 25 to 100 | – |
| – | – | Nc1nnc(N2CCC(N3Cc4cc(Cl)ccc4OC[C@@H]3Cc3ccc(Cl)cc3)CC2)[nH]1 [Example C20, reference compound] | – | 1 to 10 |
| – | – | CC(C)C[C@H]1CN(C2CCN(c3nnc(N)[nH]3)CC2)[C@@H](Cc2ccc(Cl)cc2)CO1 [Example C2, reference compound] | – | 1 to 10 |
| – | – | C[C@H]1CN(C2CCN(c3nnc(N)[nH]3)CC2)[C@@H](Cc2ccc(Cl)cc2)CN1C [Example C8, reference compound] | – | 1 to 10 |
| – | < 0.1 | Nc1nnc(N2CCC(N3CC(F)(F)C[C@@H]3Cc3ccc(Cl)cc3)CC2)[nH]1 [Example 56, (S)-5-(4-(2-(4-chlorobenzyl)-4,4-difluoropyrrolidin-1-yl)piperidin-1-yl)-4H-1,2,4-triazol-3-amine dihydrochloride] | – | – |
| < 0.1 | < 0.1 | C[C@H]([C@H]1CN(C2CCN(c3nnc(N)[nH]3)CC2)[C@@H](Cc2ccc(Cl)cc2)CO1)n1cccn1 [Example 19, 5-(4-((2R,5S)-2-((R)-1-(1H-pyrazol-1-yl)ethyl)-5-(4-chlorobenzyl)morpholino)-piperidin-1-yl)-4H-1,2,4-triazol-3-amine 2,2,2-trifluoroacetate] | – | – |
| – | – | Nc1nnc(N2CCC(N3CCCC[C@@H]3Cc3ccc(Cl)cc3)CC2)[nH]1 [Example C4, reference compound] | – | 1 to 10 |
| – | – | CN1C[C@H](Cc2ccc(Cl)cc2)N(C2CCN(c3nnc(N)[nH]3)CC2)Cc2cc(Cl)ccc21 [Example C18, reference compound] | – | < 1 |
| – | – | CN1C[C@H](Cc2ccc(Cl)cc2)N(C2CCN(c3nnc(N)[nH]3)CC2)C[C@@H]1Cc1ccc(Cl)cc1 [Example C10, reference compound] | – | < 1 |
| < 0.1 | < 0.1 | C[C@@H]([C@H]1CN(C2CCN(c3nnc(N)[nH]3)CC2)[C@@H](Cc2ccc(Cl)cc2)CO1)n1cccn1 [Example 18, 5-(4-((2R,5S)-2-((S)-1-(1H-pyrazol-1-yl)ethyl)-5-(4-chlorobenzyl)morpholino)-piperidin-1-yl)-4H-1,2,4-triazol-3-amine 2,2,2-trifluoroacetate] | – | – |
| < 0.1 | < 0.1 | Nc1nnc(N2CCC(N3C[C@H](COC(F)F)OC[C@@H]3Cc3ccc(Cl)cc3)CC2)[nH]1 [Example 40, 5-(4-((2R,5S)-5-(4-chlorobenzyl)-2-((difluoromethoxy)methyl)morpholino)-piperidin-1-yl)-4H-1,2,4-triazol-3-amine 2,2,2-trifluoroacetate] | – | – |
| < 0.1 | < 0.1 | Nc1nnc(N2CCC(N3C[C@H](O)CC[C@@H]3Cc3ccc(Cl)cc3)CC2)[nH]1 [Example 70, (3R,6R)-1′-(5-amino-4H-1,2,4-triazol-3-yl)-6-(4-chlorobenzyl)-[1,4′-bipiperidin]-3-ol 2,2,2-trifluoroacetate] | – | – |
| – | – | Nc1nnc(N2CCC(N3C[C@@H]4CCCN4C[C@@H]3Cc3ccc(Cl)cc3)CC2)[nH]1 [Example C15, reference compound] | – | 1 to 10 |
| < 0.1 | < 0.1 | CC(F)(F)[C@H]1CN(C2CCN(c3nnc(N)[nH]3)CC2)[C@@H](Cc2ccc(Cl)cc2)CO1 [Example 42, 5-(4-((2R,5S)-5-(4-chlorobenzyl)-2-(1,1-difluoroethyl)morpholino)piperidin-1-yl)-4H-1,2,4-triazol-3-amine dihydrochloride] | – | – |

| IC50 (recombinant human AMCase) [µM] | IC50 (recombinant human CHIT1) [µM] | Structure (SMILES) | IC50 (hERG channel; Table 1) [µM] | IC50 (hERG channel; Table 2, comparative examples) [µM] |
| --- | --- | --- | --- | --- |
| < 0.1 | < 0.1 | Nc1nnc(N2CCC(N3C[C@H](CN4CCC(F)(F)CC4)OC[C@@H]3Cc3ccc(Cl)cc3)CC2)[nH]1 [Example 38, 5-(4-((2S,5S)-5-(4-chlorobenzyl)-2-((4,4-difluoropiperidin-1-yl)methyl)-morpholino)piperidin-1-yl)-4H-1,2,4-triazol-3-amine 2,2,2-trifluoroacetate] | – | – |
| – | – | CN1C[C@H](Cc2ccc(Cl)cc2)N(C2CCN(c3nnc(N)[nH]3)CC2)Cc2ccccc21 [Example C17, reference compound] | – | 1 to 10 |
| < 0.1 | < 0.1 | Nc1nnc(N2CCC(N3C[C@H](COCC(F)F)OC[C@@H]3Cc3ccc(Cl)cc3)CC2)[nH]1 [Example 43, 5-(4-((2R,5S)-5-(4-chlorobenzyl)-2-((2,2-difluoroethoxy)methyl)morpholino)-piperidin-1-yl)-4H-1,2,4-triazol-3-amine 2,2,2-trifluoroacetate] | – | – |
| – | – | Nc1nnc(N2CCC(N3CCOC[C@@H]3Cc3ccc(Cl)cc3)CC2)[nH]1 [Example C1, reference compound] | – | 10 to 25 |
| – | 1 to 10 | CC1(O)CCN(C2CCN(c3nnc(N)[nH]3)CC2)[C@@H](Cc2ccc(Cl)cc2)C1 (stereo partly drawn) [Example 59, (2S)-1′-(5-amino-4H-1,2,4-triazol-3-yl)-2-(4-chlorobenzyl)-4-methyl-[1,4′-bipiperidin]-4-ol 2,2,2-trifluoroacetate] | 25 to 100 | – |
| – | – | COC(C)(C)[C@H]1CN(C2CCN(c3nnc(N)[nH]3)CC2)[C@@H](Cc2ccc(Cl)cc2)CO1 [Example C3, reference compound] | – | 10 to 25 |
| – | – | Nc1nnc(N2CCC(N3C[C@@H](O)C[C@@H]3Cc3ccc(Cl)cc3)CC2)[nH]1 [Example C14, reference compound] | – | 10 to 25 |
| – | – | CN1C[C@H](Cc2ccc(Cl)cc2)N(C2CCN(c3nnc(N)[nH]3)CC2)C[C@@H]1CC1CCCCC1 [Example C11, reference compound] | – | < 1 |
| < 0.1 | 0.1 to 1 | Nc1nnc(N2CCC(N3CC4CC4C[C@@H]3Cc3ccc(Cl)cc3)CC2)[nH]1 (stereo partly drawn) [Example 72, 5-(4-((4R)-4-(4-chlorobenzyl)-3-azabicyclo[4.1.0]heptan-3-yl)piperidin-1-yl)-4H-1,2,4-triazol-3-amine 2,2,2-trifluoroacetate] | – | – |
| – | 1 to 10 | Nc1nnc(N2CCC(N3Cc4cncn4C[C@@H]3Cc3ccc(C(F)(F)F)cc3)CC2)[nH]1 [Example 77, (S)-5-(4-(6-(4-(trifluoromethyl)benzyl)-5,6-dihydroimidazo[1,5-a]pyrazin-7(8H)-yl)piperidin-1-yl)-4H-1,2,4-triazol-3-amine 2,2,2-trifluoroacetate] | – | – |
| – | – | CO[C@H]1CN(C2CCN(c3nnc(N)[nH]3)CC2)[C@H]1Cc1ccc(Cl)cc1 [Example C6, reference compound] | – | < 1 |
| – | – | Nc1nnc(N2CCC(N3Cc4cc(Cl)cc(Cl)c4OC[C@@H]3Cc3ccc(Cl)cc3)CC2)[nH]1 [Example C21, reference compound] | – | 1 to 10 |
| – | 0.1 to 1 | CO[C@@H]1CC[C@H](Cc2ccc(Cl)cc2)N(C2CCN(c3nnc(N)[nH]3)CC2)C1 [Example 71, 5-((2R,5R)-2-(4-chlorobenzyl)-5-methoxy-[1,4′-bipiperidin]-1′-yl)-4H-1,2,4-triazol-3-amine 2,2,2-trifluoroacetate] | 25 to 100 | – |
| < 0.1 | < 0.1 | Nc1nnc(N2CCC(N3C[C@H](CN4CCCCC4=O)OC[C@@H]3Cc3ccc(Cl)cc3)CC2)[nH]1 [Example 35, 1-(((2R,5S)-4-(1-(5-amino-4H-1,2,4-triazol-3-yl)piperidin-4-yl)-5-(4-chlorobenzyl)-morpholin-2-yl)methyl)piperidin-2-one 2,2,2-trifluoroacetate] | – | – |
| – | – | Nc1nnc(N2CCC(N3CCC[C@@H]3Cc3ccc(Cl)cc3)CC2)[nH]1 [Example C7, reference compound] | – | 1 to 10 |
| – | – | CC(C)CN1CCN(C2CCN(c3nnc(N)[nH]3)CC2)[C@@H](Cc2ccc(Cl)cc2)C1 [Example C9, reference compound] | – | 1 to 10 |
